Laboratory results taken from article PMC9230651, “Discovery of Novel Quinazoline Derivatives as Potent Antitumor Agents” (Molecules, 2022).

Experiments:
[1] = test system: MGC-803; test: MTT assay, antiproliferative activity against MGC-803; assay type: cell-based, human
Protocol: (§1) Human gastric carcinoma cell line MGC-803, human breast adenocarcinoma cell line MCF-7, human lung carcinoma cell lines (PC-9, A549, and H1975), and human immortalized gastric mucosa epithelial cell line GES-1 were purchased from the Cell Bank of Shanghai Institute of Biochemistry and Cell Biology (Shanghai, China), and all of them were cultured in RPMI-1640 and DMEM complete medium (Solarbio, Beijing, China) at 37 °C in a 5% CO2 humidified atmosphere.
(§2) Briefly, cells were incubated with different concentrations of the test compound for different hours in each experiment for 72 h, followed by adding 20 μL MTT solution to each well, which was then incubated for another 4 h. An enzyme-linked immunosorbent assay reader (BioTek, South Plainfield, VT, USA) was used to measure absorbance values at 490 nm, and SPSS20 software was used to calculate the cell viability and IC50 values.

[2] = test system: MCF-7; test: MTT assay, antiproliferative activity against MCF-7; assay type: cell-based, human
Protocol: as §1, §2

[3] = test system: PC-9; test: MTT assay, antiproliferative activity against PC-9; assay type: cell-based, human
Protocol: as §1, §2

[4] = test system: A549; test: MTT assay, antiproliferative activity against A549; assay type: cell-based, human
Protocol: as §1, §2

[5] = test system: H1975; test: MTT assay, antiproliferative activity against H1975; assay type: cell-based, human
Protocol: as §1, §2

[6] = test system: GES-1; test: MTT assay, toxicity toward normal gastric epithelial cell line GES-1; assay type: cell-based, human; conditions: for IC50: MTT, 72 h
Protocol: as §1, §2

[7] = test system: MGC-803 cells; test: Wound healing migration assay; assay type: cell-based, human; conditions: 1 µM; 12 h, 24 h, 48 h
Protocol: For the wound healing assay, MGC-803 cells were seeded into 6-well plates, reaching the density of 90%, followed by being scraped off using a sterile yellow pipette tip and photographed. Subsequently, cells were treated with compound 18 at 1 µM for 12 h, 24 h, and 48 h, respectively, and then photographed again each time.

[8] = test system: MGC-803 cells; test: Transwell migration assay; assay type: cell-based, human; conditions: 0.37, 0.75, 1.5 µM; 48 h
Protocol: For the transwell assay, 600 µL of fresh medium was added to 20% FBS to the substrate of the 24-well plates. Then, 2 × 10^4 MGC-803 cells were seeded into each well, followed by incubation with 0.37 µM, 0.75 µM, and 1.5 µM compound 18 in the upper chambers for 48 h, which was then stained by DAPI solution and photographed.

[9] = test system: MGC-803 cells; test: Apoptosis, Annexin V-FITC/PI flow cytometry; assay type: cell-based, human; conditions: 1.5 μM, 48 h
Protocol: Cells were plated in 6-well plates and incubated with 0.37 µM, 0.75 µM, and 1.5 µM compound 18 for 48 h, followed by being harvested and stained by PI and Annexin V according to manufacturer’s protocol. Finally, flow cytometry (BD Bioscience, Franklin Lake, NJ, USA) was applied to detect apoptotic cells.

[10] = test system: MGC-803 cells; test: Western blot of apoptosis-related proteins; assay type: cell-based, human; conditions: 0.37, 0.75, 1.5 µM; 48 h
Protocol: Cells were incubated with 0.37 µM, 0.75 µM, and 1.5 µM compound 18 for 48 h and then collected with trypsin and total proteins and extracted in a lysis buffer. A BCA protein assay kit (Solarbio, Beijing, China) was used to confirm the concentration of the total proteins. These samples were detected by the standard protocol of western blot as described before.

[11] = test system: MGC-803 cells; test: Cell cycle distribution, PI flow cytometry; assay type: cell-based, human; conditions: 0.37, 0.75, 1.5 µM; 48 h
Protocol: MGC-803 cells were seeded into 6-well plates at a concentration of 4 × 10^5 cells per well, followed by being incubated with 0.37 µM, 0.75 µM, and 1.5 µM compound 18 for 48 h, which were subsequently harvested and stained in 500 µL Propidium Iodide solution (PI 1 mg/mL, RNase A 10 mg/mL, Solarbio, Beijing, China) at room temperature without light for 30 min. Finally, flow cytometry (BD Bioscience, Franklin Lake, NJ, USA) was used to detect and analyze staining cells.

[12] = test system: healthy male and female mice; test: Acute toxicity assay; assay type: in vivo; conditions: 1000 mg/kg intragastric, single dose
Protocol: The solution of compound 18 was prepared in 80% PEG400 solution. Eight ICR mice (four male/four female, 24–28 g, aged five to six weeks) were obtained from the Beijing Vital River Laboratory Animal Technology Co., Ltd. (Beijing, China). All animal treatments were performed under the guidelines of the National Institutes of Health Guide for the Care and Use of Laboratory Animals using an approved animal protocol by the Zhengzhou University Committee on Animal Care. Male and female mice ([…]) were divided randomly into four groups: a male control group (n = 2), a female control group (n = 2), a male group (n = 2), and a female group (n = 2). All mice were deprived of feed for 12 h. 1 g/kg compound 18 was administered intragastrically in the experiment group of mice, while the mice in the control group received the same volume of vehicle solution on the first day, followed by monitoring abnormal behaviors, body weight, and the death of these mice every day during the following two weeks.

[13] = test system: xenograft model carrying MGC-803 cells; test: In vivo anti-tumor activity, gastric cancer xenograft model; parameters: species or system mice
Protocol: Male mice (23–25 g, aged 5–6 weeks) were obtained from Beijing Vital River Laboratory Animal Technology Co., Ltd. (Beijing, China). All animal treatments were performed under the guidelines of the National Institutes of Health Guide for the Care and Use of Laboratory Animals using an approved animal protocol by the Zhengzhou University Committee on Animal Care (2020CHEM-ZZU-086). 1.0 × 10^7 MGC-803 cells were implanted in the right flank of mice subcutaneously. After 16 days, the tumor volume reached 100 mm^3, followed by being randomly divided into three groups (n = 7): solvent group, 5-Fu (10 mg/kg) group, and compound 18 (25 mg/kg) group. An intravenous injection of 5-Fu (10 mg/kg) was administered into the corresponding mice group every three days, while the mice in compound 18 group received intragastric administration of 25 mg/kg compound 18 per day for 21 days. Tumor diameter and body weight were measured every two days, followed by the euthanization of the mice after 34 days, after which tumor weights were.

[14] = 25 mg/kg intragastric per day for 21 days
[15] = 10 mg/kg intravenous every three days

SMILES	IC50 ([1]; Homo sapiens, MGC-803, 72 h) [µM]	IC50 ([2]; Homo sapiens, MCF7, 72 h) [µM]	IC50 ([3]; Homo sapiens, PC-9, 72 h) [µM]	IC50 ([4]; Homo sapiens, A549, 72 h) [µM]	IC50 ([5]; Homo sapiens, NCI-H1975, 72 h) [µM]	IC50 ([6]; Homo sapiens, GES1) [µM]	melting point [°C]	further results
O=C(/C=C/c1ccc2ccccc2c1)c1ccc(Nc2nc(-c3ccccc3)nc3ccccc23)cc1 [compound 19, (E)-3-(Naphthalen-2-yl)-1-(4-((2-phenylquinazolin-4-yl)amino)phenyl)prop-2-en-1-one]	1.56 ± 0.92	1.96 ± 0.56	1.39 ± 0.25	2.55 ± 0.49	2.61 ± 0.59	19.8 ± 2.21	281 to 286	
c1ccc(-c2nc(Nc3cccc4ccccc34)c3ccccc3n2)cc1 [compound 15, N-(Naphthalen-1-yl)-2-phenylquinazolin-4-amine]	18.9 ± 2.82	> 30	15.4 ± 1.92	12.2 ± 1.59	10.4 ± 1.88	> 30	204 to 208	
O=[N+]([O-])c1ccc(Nc2nc(-c3ccccc3)nc3ccccc23)cc1 [compound 10, N-(4-Nitrophenyl)-2-phenylquinazolin-4-amine]	8.32 ± 2.06	12.2 ± 1.91	12.5 ± 2.83	15.7 ± 1.89	25.8 ± 2.2	> 30		
O=C(/C=C/c1ccc(F)cc1)c1ccc(Nc2nc(-c3ccccc3)nc3ccccc23)cc1 [compound 16, (E)-3-(4-Fluorophenyl)-1-(4-((2-phenylquinazolin-4-yl)amino)phenyl)prop-2-en-1-one]	2.02 ± 0.38	3.96 ± 0.92	2.75 ± 0.66	1.98 ± 0.26	3.67 ± 0.93	18.8 ± 1.56	252 to 256	
COc1cc(Nc2nc(-c3ccccc3)nc3ccccc23)cc(OC)c1OC [compound 14, 2-Phenyl-N-(3,4,5-trimethoxyphenyl)quinazolin-4-amine]	2.12 ± 0.97	3.21 ± 2.28	5.35 ± 1.82	8.72 ± 1.53	13.2 ± 1.86	19.6 ± 2.58		
Clc1ccc(Nc2nc(-c3ccccc3)nc3ccccc23)cc1 [compound 8, N-(4-Chlorophenyl)-2-phenylquinazolin-4-amine]	3.57 ± 0.89	6.96 ± 1.57	8.75 ± 1.59	6.58 ± 1.31	10.6 ± 2.46	> 30		
COc1ccc(Nc2nc(-c3ccccc3)nc3ccccc23)cc1 [compound 13, N-(4-Methoxyphenyl)-2-phenylquinazolin-4-amine]	4.98 ± 1.26	8.36 ± 1.92	6.83 ± 1.29	5.69 ± 1.68	> 30	21.3 ± 2.79		
Fc1ccc(Nc2nc(-c3ccccc3)nc3ccccc23)cc1 [compound 7, N-(4-Fluorophenyl)-2-phenylquinazolin-4-amine]	4.15 ± 1.16	8.75 ± 1.76	10.6 ± 2.16	4.82 ± 0.99	12.6 ± 2.89	20.8 ± 3.29		
FC(F)(F)c1ccc(Nc2nc(-c3ccccc3)nc3ccccc23)cc1 [compound 11, 2-Phenyl-N-(4-(trifluoromethyl)phenyl)quinazolin-4-amine]	11 ± 1.93	15.7 ± 1.82	20.8 ± 2.16	25.4 ± 3.11	22.9 ± 2.69	25.4 ± 3.51	190 to 195	
O=C(/C=C/c1ccc(Br)cc1)c1ccc(Nc2nc(-c3ccccc3)nc3ccccc23)cc1 [compound 18, (E)-3-(4-Bromophenyl)-1-(4-((2-phenylquinazolin-4-yl)amino)phenyl)prop-2-en-1-one]	0.85 ± 0.14	1.61 ± 0.2	1.26 ± 0.18	1.54 ± 0.38	2.12 ± 0.52	26.8 ± 1.85		selectivity MGC-803 against GES-1 ([6]; IC50 GES-1 / IC50 MGC-803): ~32 fold; effect on migration of MGC-803 cells, wound healing assay [7]: effectively inhibit the migration of MGC-803 cells dose-dependently; effect on migration of MGC-803 cells, transwell assay [8]: effectively inhibit the migration of MGC-803 cells dose-dependently; apoptotic percentage (late and early apoptosis) [9]: 70.9%; expression of Bax [10]: up-regulating; expression of Bcl-2 [10]: remarkably decreased; expression of Mcl-1 [10]: remarkably decreased; expression of cleaved PARP [10]: dose-dependently induced the up-regulation; effect on cell cycle [11]: significantly induced cell cycle arrest at G2/M; pathological damage of brain, heart, liver, spleen, lung, kidney (HE staining) [12]: no marked pathological damage; average tumor volume [13, 14]: decreased the average tumor volume; body weight [13, 14]: did not cause significant changes in body weight; tumor weight [13, 14]: decreased the average tumor volume and tumor weight
O=C(/C=C/c1ccc(Cl)cc1)c1ccc(Nc2nc(-c3ccccc3)nc3ccccc23)cc1 [compound 17, (E)-3-(4-Chlorophenyl)-1-(4-((2-phenylquinazolin-4-yl)amino)phenyl)prop-2-en-1-one]	1.39 ± 0.26	2.37 ± 0.35	1.89 ± 0.67	1.46 ± 0.16	4.75 ± 0.81	23.4 ± 2.83	263 to 267	
O=c1[nH]cc(F)c(=O)[nH]1 [5-Fu, reference compound]								IC50 ([1]; 72 h): 4.11 ± 0.72 µM; IC50 ([2]; 72 h): 4.51 ± 1.23 µM; IC50 ([3]; 72 h): 3.68 ± 1.06 µM; IC50 ([4]; 72 h): 5.12 ± 1.73 µM; IC50 ([5]; 72 h): 2.68 ± 0.86 µM; IC50 [6]: 3.26 ± 1.07 µM; average tumor volume [13, 15]: decreased the average tumor volume; body weight [13, 15]: did not cause significant changes in body weight; tumor weight [13, 15]: decreased the average tumor volume and tumor weight
Cc1ccc(Nc2nc(-c3ccccc3)nc3ccccc23)cc1 [compound 12, 2-Phenyl-N-(p-tolyl)quinazolin-4-amine]	5.81 ± 2.41	10.6 ± 1.67	15.3 ± 1.53	8.56 ± 1.72	19.4 ± 2.38	24.3 ± 1.96		
c1ccc(Nc2nc(-c3ccccc3)nc3ccccc23)cc1 [compound 6, N,2-Diphenylquinazolin-4-amine]	6.23 ± 0.12	12.6 ± 0.16	15.8 ± 0.52	10.3 ± 0.98	20.1 ± 1.62	> 30		
Brc1ccc(Nc2nc(-c3ccccc3)nc3ccccc23)cc1 [compound 9, N-(4-Bromophenyl)-2-phenylquinazolin-4-amine]	1.89 ± 0.59	5.15 ± 1.16	4.31 ± 0.96	4.75 ± 1.36	6.65 ± 1.57	18.6 ± 1.72	187 to 193	
